Laboratory results reported in patent EP2027772A1, “Skin-friendly insect repellent” (Beiersdorf AG, priority 2007, dated 2009).
Where two headings read alike, the source gives them in different places.

How the values were obtained:
[1] = physchem
[2] = Octanol/water partition coefficient (log P), shake-flask with UV spectroscopy; alternatively calculated by Hansch and Leo

Structure (SMILES)	logP ([1]; n-octanol/water)	other results
CCCCCC(O)CO (stereo not drawn) [1,2 Heptanediol]	1.5	–
CCCCC(O)CO (stereo not drawn) [1,2 Hexandiol]	1	–
CCCCCCCC(O)CO (stereo not drawn) [1,2 Nonanediol]	2.5	–
CCCCCCC(O)CO (stereo not drawn) [1,2 Octandiol]	1.3	–
CCCC(O)CO (stereo not drawn) [1,2 Pentandiol]	-0.3	–
CC(O)CO (stereo not drawn) [1,2 Propandiol]	–	Log P-Wert ([2]; n-Octanol/Wasser): -1,3
CCCCCC(O)C(O)CO (stereo not drawn) [1,2,3 Octanetriol]	0.15	–
CCCCCCCCC(O)CO (stereo not drawn) [1,2-Decandiol]	2.4	–
CC(O)CCO (stereo not drawn) [1,3 Butandiol]	–	logP [1]: -0.7
COCC(O)COC [1,3-Dimethoxy-2-propanol]	-0.5	–
OCCCCCO [1,5 Pentandiol]	–	logP [1]: -0.6
OCCCCCCO [1,6 Hexandiol]	–	logP [1]: -0.1
OCC(CO)(CO)CO [2,2 Bishydroxymethyl 1,3 Propanediol]	–	logP [1]: -2.4
CCC(CO)(CO)CO [2-Ethyl-2-Hydroxymethyl 1,3 Propandiol]	–	logP [1]: -0.8
CC(CO)CO [2-Methyl-1,3-Propanediol]	-0.7	–
CC(O)CC(C)(C)O (stereo not drawn) [2-Methyl-2,4 Pentandiol]	0	–
CCC(CO)(CO)COCC(CC)(CO)CO [3,3,7,7 Tetrahydroxymethyl 5 oxanonan]	-0.3	–
CC(C)(O)CCO [3-Methyl 1,3 Butanediol]	-0.3	–
CCCCC(CC)COCC(O)CO (stereo not drawn) [3-[(2-Ethylhexyl)oxy]-1,2 propandiol]	–	logP [1]: 2.1
OCCCCO [Butane-1,4diol, Tetramethylene Glucol]	–	Log P-Wert ([2]; n-Octanol/Wasser): -1
CC(C)(CO)CO [Neopentanediol, Neopentyleme Glyol]	–	Log P-Wert [2]: -0,3
